Assay results: PubChem BioAssay (NCI)
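Grown in 96-well plates, cells were treated for 48 hours with each compound at five concentrations. Insufficient inhibition: endpoint recorded as highest concentration tested. Here, GI50 denotes the concentration required for 50% inhibition of growth. At the TGI there is no net growth.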

Experiments:
Experiment in all cases: inhibition of tumour cell growth, NCI panel, 48 h
SF-539 CNS = tested on: SF-539 CNS
MOLT-4 leukemia = tested on: MOLT-4 leukemia
MDA-MB-231 breast = tested on: MDA-MB-231 breast
A498 renal = tested on: A498 renal
HS 578T breast = tested on: HS 578T breast
OVCAR-5 ovarian = tested on: OVCAR-5 ovarian
T-47D breast = tested on: T-47D breast
HCT-15 colon = tested on: HCT-15 colon
SF-295 CNS = tested on: SF-295 CNS
U251 CNS = tested on: U251 CNS

| SMILES | GI50 (SF-539 CNS) [µM] | TGI (SF-539 CNS) [µM] | GI50 (MOLT-4 leukemia) [µM] | TGI (MOLT-4 leukemia) [µM] | GI50 (MDA-MB-231 breast) [µM] | TGI (MDA-MB-231 breast) [µM] | GI50 (A498 renal) [µM] | TGI (A498 renal) [µM] | GI50 (HS 578T breast) [µM] | TGI (HS 578T breast) [µM] | GI50 (OVCAR-5 ovarian) [µM] | TGI (OVCAR-5 ovarian) [µM] | GI50 (T-47D breast) [µM] | TGI (T-47D breast) [µM] | GI50 (HCT-15 colon) [µM] | TGI (HCT-15 colon) [µM] | GI50 (SF-295 CNS) [µM] | TGI (SF-295 CNS) [µM] | GI50 (U251 CNS) [µM] | TGI (U251 CNS) [µM] |
| --- | --- | --- | --- | --- | --- | --- | --- | --- | --- | --- | --- | --- | --- | --- | --- | --- | --- | --- | --- | --- |
| COc1ccc(-c2cncn2-c2cc(OC)c(OC)c(OC)c2)cc1 | 0.0671 | 0.46 | 1.87 | > 77 | 0.465 | 25.7 | 0.103 | 17.5 | 0.123 | > 6.68 | 0.318 | > 100 | 3.12 | > 100 | 0.17 | > 91.9 | 0.0311 | > 14.8 | 0.412 | > 46.4 |
| O=C1CSC(c2ccccc2Cl)N1c1nnc(Cn2cnnc2)o1 (stereo not drawn) | 13.6 | 35.2 | 7.27 | 26.1 | 12.1 | 29.9 | 12.3 | 52.7 | 8.62 | 60.9 | 20.4 | 44.3 | 3.76 | 31.9 | 4.47 | 18.2 | 3.38 | 19.5 | 4.58 | 18.9 |
| COc1cc(C2C3=C(COC3=O)N(CCO)c3cc4c(cc32)OCCO4)cc(OC)c1OC (stereo not drawn) | 0.147 |  | 0.242 | > 11.4 | 0.185 | 2.72 | 0.14 | 0.441 | 0.164 | 35.5 | 2.09 | > 50 | 0.287 | > 50 | 1.37 | > 50 | 0.15 | 4.66 | 0.226 | > 50 |
| CCCc1cc(=O)n2c(C(=O)Nc3ccc(F)cc3)c(C(=O)Nc3ccc(F)cc3)sc2n1 | > 160 | > 160 | > 160 | > 160 | 4.8 | 23.8 | 46.4 | 137 | 2.58 | 11.1 | > 160 | > 160 | 87 | > 160 | 89.7 | > 160 | > 160 | > 160 | 16.3 | 47.9 |
| NC(=O)c1ccc(Oc2nccc(-c3c(-c4ccc(F)cc4)ncn3C3CCNCC3)n2)cc1 | > 25 | > 25 | > 25 | > 25 | > 25 | > 25 | > 18.2 | > 25 | > 9.72 | > 25 | > 25 | > 25 | > 25 | > 25 | > 25 | > 25 | > 25 | > 25 | > 25 | > 25 |
| CC(=O)OC12C=C(C)C(C(C)C1)C1C(=O)N(CCN3CCCCC3)C(=O)C12 (stereo not drawn) | > 50 | > 50 | > 50 | > 50 | > 50 | > 50 | > 50 | > 50 | 48 | > 50 | > 50 | > 50 | > 50 | > 50 | > 50 | > 50 | > 50 | > 50 | > 50 | > 50 |
| CCCCCCSSC(=S)N(CC)CC | 17.5 | 43.3 | 17.7 | 44.5 | 17.5 | 39.2 | 70 | > 100 | 28.3 | > 100 | 20.5 | 35.9 | 25.4 | > 100 | 28.4 | > 100 | 17.4 | 51.1 | 14.2 | 30.6 |
| S=C1Cc2c(-c3ccc(Br)cc3)cc(-c3ccccc3)nc2-c2ccccc2N1 |  | 12.2 |  | 72 |  | 3.72 |  | 3.71 |  | 3.84 |  | 14.4 |  | 7.03 |  | 14.6 |  | 5.4 |  | 2.58 |
| CSc1nc2nc3c(nc2c(=O)n1C)C(=O)c1ccccc1C3=O | 0.196 | 0.384 | 0.227 | 0.581 | 0.256 | 0.974 | 0.186 | 0.768 | 0.226 | 0.678 | 0.199 | 0.355 | 0.226 | 0.843 | 0.164 | 0.429 | 0.157 | 0.315 | 0.229 | 0.612 |
| CCCCC#Cc1c(I)n(C)c(=O)[nH]c1=O | 15.8 | 29.2 | 2.73 | 13.9 | 2.06 | 4.27 | 18.7 | 32.7 | 2.61 | 7.16 | 6.38 | 19.2 | 1.7 | 6.96 | 1.52 | 2.87 | 10.6 | 22.7 | 2.42 | 6.85 |
| C#C[C@@]1(O)[C@@H](CO)O[C@@H](n2cc(I)c3c(N)ncnc32)[C@@H]1O | 0.378 | 2.55 | 0.0489 | 0.831 | 0.185 | > 100 | 0.309 | 1.43 | 0.785 | 7.83 | 0.933 | > 100 |  | 0.127 | 0.137 | > 100 | 0.432 | 3.77 | 0.0734 | > 32 |
| O=C(/C=C/C=C/c1ccccc1)c1ccco1 | 17.1 | 31.5 | 1.92 | 21.5 | 22.7 | 57.1 | 14.3 | 39.1 | 17.5 | 52.9 | 18.4 | 33.3 | 7.5 | 37.5 | 11.6 | 26.3 | 13.2 | 34.6 | 12.4 | 24.9 |
| COc1cccc2cc(N(C)c3nc(C)nc4c3CCC4)ccc12 | < 0.01 | < 0.01 | < 0.01 | 16.1 | < 0.01 | 14.7 | < 0.01 | 14.7 | < 0.01 | 30 | < 0.01 | 19.6 | 5.38 | 41.8 | < 0.01 | 6.41 | < 0.01 | 12.5 | < 0.01 | 12.8 |
